Data taken from US8080529B2, “Macrolides with anti-inflammatory activity” (Glaxo Group Limited, priority 2005, dated 2011).
Like-named read-outs stand apart in the source and are kept apart here.

Key:
Format in all cases: cell-based
TNF-α = test: Inhibition of TNF-α production by stimulated human peripheral blood leukocytes in vitro; conditions: Homo sapiens, Leukocyte, read-out: Percentage of inhibition of TNF-α production
Method: (§1) Test substances used in in vitro experiments were dissolved in dimethyl sulfoxide (DMSO) (Kemika, Croatia) at concentrations of 50 mM and 10 mM, and were further diluted to final concentrations of 50 μM and 10 μM in 1 mL Dulbecco's modified Eagle medium (DMEM) supplemented with 1% heat inactivated fetal bovine serum (FBS), 1% L-glutamine, 50 U/ml penicillin, 50 μg/ml streptomycin and 2.5 μg/mL Fungizone (amphotericin B). Media and all media supplements were purchased from Gibco, Australia, except the FBS was purchased from Sigma, USA.
(§2) Peripheral blood leukocytes (PBL) were obtained from venous blood of healthy volunteers by sedimentation on 2% dextran T-500 (Amersham Biosciences, USA) and subsequent centrifugations of leukocyte rich plasma.
(§3) Peripheral blood leukocytes (PBL), isolated as described above, were seeded in a 48-well plate at a concentration of 3 to 5×10^6 cell per well in culture medium consisting of RPMI 1640 medium (Institute of Immunology, Croatia) supplemented with 10% heat-inactivated fetal calf serum (FCS, Biowhittaker, USA), 100 U/ml penicillin (Gibco, Australia), 100 μg/ml streptomycin (Gibco, Australia) and 2 mM L-glutamine (Gibco, Australia), and preincubated with the test compounds for 2 h at 37° C., in an atmosphere of 5% CO2, and 90% humidity. Then, stimuli (Sigma, USA) were added to a final concentration of 2 μg/mL lipopolysaccharide (LPS), 1 μg/mL phorbol 12-myristate 13-acetate (PMA) or 120 μg/mL zymosan. Samples were incubated overnight under conditions described above. At the end of incubation, the supernatants were transferred to eppendorf tubes and centrifuged for 10 min at 1500×g. Concentrations of human TNF-α, IL-1β, IL-6 and IL-8 were determined in cell supernatants by sandwich ELISA, using capture and detection antibodies (R&D Systems, Minneapolis, Minn.) according to the manufacturer's recommendations.
(§4) Inhibition (as percentage) was calculated using the following formula: % inhibition=(1−concentration of cytokines in sample/concentration of cytokines in positive control)×100.
(§5) The positive control refers to LPS-, PMA- or zymosan-stimulated samples that were not preincubated with test compounds.

IL-1α = test: Inhibition of IL-1 production by stimulated human peripheral blood leukocytes in vitro; conditions: Homo sapiens, Leukocyte, read-out: Percentage of inhibition of IL-1α production
IL-6 = test: Inhibition of IL-6 production by stimulated human peripheral blood leukocytes in vitro; conditions: Homo sapiens, Leukocyte, read-out: Percentage of inhibition of IL-6 production
Method: as §1, §2, §3, §4, §5

IL-8 = test: Inhibition of IL-8 production by stimulated human peripheral blood leukocytes in vitro; conditions: Homo sapiens, Leukocyte, read-out: Percentage of inhibition of IL-8 production
Method: as §1, §2, §3, §4, §5

Hep G2 = test: Cytotoxicity assay (MTT), Hep G2 cell line; conditions: 24 h
Method: (§6) To determine whether the anti-inflammatory activity of the test compounds was due to observed inhibition of cytokine production and inhibition of proliferation in vitro, and was not a consequence of cellular cytotoxicity, measurement of succinate dehydrogenase activity in living cells was performed. Cells were cultured for 24 h in RPM medium as described above at 37° C. the presence of the test compounds at concentrations of 50 μM and 12.5 μM. MTT [3-(4,5-dimethylthiazole-2-yl)-2,5-diphenyl tetrazolium bromide] (Promega, USA), a detection reagent, was then added and the cultures were incubated for 0.5-2 h. The amount of MTT-Formazan produced was determined using a spectrophotometer at 490 nm (Mosmann, J. Immunol. Methods, 1983, 65: 55-63).
(§7) The percentage of inhibition of cell growth was calculated using the following formula: % inhibition of cell growth=[…].

A549 = test: Cytotoxicity assay (MTT), A549 cell line; conditions: 24 h
Method: as §6, §7

SMILES	inhibition at 10 µM (TNF-α; LPS-stimulated PBL) [%]	inhibition at 10 µM (TNF-α; PMA-stimulated PBL) [%]	inhibition at 10 µM (TNF-α; zymosan-stimulated PBL) [%]	inhibition at 50 µM (TNF-α; LPS-stimulated PBL) [%]	inhibition at 50 µM (TNF-α; PMA-stimulated PBL) [%]	inhibition at 50 µM (TNF-α; zymosan-stimulated PBL) [%]	inhibition at 10 µM (IL-1α; LPS-stimulated PBL) [%]	inhibition at 10 µM (IL-1α; PMA-stimulated PBL) [%]	inhibition at 10 µM (IL-1α; zymosan-stimulated PBL) [%]	inhibition at 50 µM (IL-1α; LPS-stimulated PBL) [%]	inhibition at 50 µM (IL-1α; PMA-stimulated PBL) [%]	inhibition at 50 µM (IL-1α; zymosan-stimulated PBL) [%]	inhibition at 10 µM (IL-6; LPS-stimulated PBL) [%]	inhibition at 10 µM (IL-6; PMA-stimulated PBL) [%]	inhibition at 10 µM (IL-6; zymosan-stimulated PBL) [%]	inhibition at 50 µM (IL-6; LPS-stimulated PBL) [%]	inhibition at 50 µM (IL-6; PMA-stimulated PBL) [%]	inhibition at 50 µM (IL-6; zymosan-stimulated PBL) [%]	inhibition at 10 µM (IL-8; LPS-stimulated PBL) [%]	inhibition at 10 µM (IL-8; PMA-stimulated PBL) [%]	other results
CC[C@H]1OC(=O)[C@H](C)[C@@H](O[C@H]2C[C@@](C)(OC)[C@@H](OC(=O)CCN3CCN(CC4CCCN(C)C4)CC3)[C@H](C)O2)[C@H](C)[C@@H](O[C@@H]2O[C@H](C)C[C@H](N(C)C)[C@H]2O)[C@](C)(OC)C[C@@H](C)C(=O)N[C@H](C)[C@@H](O)[C@]1(C)O (stereo partly shown) [Example 33]	16	23	16	50	74	53	28	33	55	42	75	85	8	9	13	30	49	40	0	0	inhibition at 10 µM (IL-8; zymosan-stimulated PBL): 0%; inhibition at 50 µM (IL-8; LPS-stimulated PBL): 11%; inhibition at 50 µM (IL-8; PMA-stimulated PBL): 10%; inhibition at 50 µM (IL-8; zymosan-stimulated PBL): 40%; Percentage of inhibition of cell growth (Hep G2; 12.5 μM): 5%; Percentage of inhibition of cell growth (Hep G2; 50 μM): 4%; Percentage of inhibition of cell growth (A549; 12.5 μM): 0%; Percentage of inhibition of cell growth (A549; 50 μM): 0%
CC[C@H]1OC(=O)[C@H](C)[C@@H](O[C@H]2C[C@@](C)(OC)[C@@H](OC(=O)CCNC(C)C)[C@H](C)O2)[C@H](C)[C@@H](O[C@@H]2O[C@H](C)C[C@H](N(C)C)[C@H]2O)[C@](C)(OC)C[C@@H](C)C(=O)N[C@H](C)[C@@H](O)[C@]1(C)O [Example 23]	0	5	0	19	54	37	2	12	67	39	69	75	0	20	35	14	59	45	0	0	inhibition at 10 µM (IL-8; zymosan-stimulated PBL): 22%; inhibition at 50 µM (IL-8; LPS-stimulated PBL): 10%; inhibition at 50 µM (IL-8; PMA-stimulated PBL): 15%; inhibition at 50 µM (IL-8; zymosan-stimulated PBL): 43%; Percentage of inhibition of cell growth (Hep G2; 12.5 μM): 6%; Percentage of inhibition of cell growth (Hep G2; 50 μM): 5%; Percentage of inhibition of cell growth (A549; 12.5 μM): 0%; Percentage of inhibition of cell growth (A549; 50 μM): 0%
CC[C@H]1OC(=O)[C@H](C)[C@@H](OC2C[C@@](C)(OC)[C@@H](OC(=O)CCN3CCNCC3)[C@H](C)O2)[C@H](C)[C@@H](OC2O[C@H](C)C[C@H](N(C)C)[C@H]2O)[C@](C)(OC)C[C@@H](C)C(=O)[C@H](C)[C@@H](O)[C@]1(C)O (stereo partly shown) [Example 50, 4″-O-(3-piperazin-1-yl-propionyl)-6-O-methylerithromycin A]	10	0	36	100	100	98	19	0	81	23	44	69	0	0	52	54	23	96	0	0	inhibition at 10 µM (IL-8; zymosan-stimulated PBL): 0%; inhibition at 50 µM (IL-8; LPS-stimulated PBL): 61%; inhibition at 50 µM (IL-8; PMA-stimulated PBL): 100%; inhibition at 50 µM (IL-8; zymosan-stimulated PBL): 70%; Percentage of inhibition of cell growth (Hep G2; 12.5 μM): 0%; Percentage of inhibition of cell growth (Hep G2; 50 μM): 8%; Percentage of inhibition of cell growth (A549; 12.5 μM): 10%; Percentage of inhibition of cell growth (A549; 50 μM): 10%
CC[C@H]1OC(=O)[C@H](C)[C@@H](O[C@H]2C[C@@](C)(OC)[C@@H](OC(=O)CCN3CCCCCC3)[C@H](C)O2)[C@H](C)[C@@H](O[C@@H]2O[C@H](C)C[C@H](N(C)C)[C@H]2O)[C@](C)(OC)C[C@@H](C)C(=O)N[C@H](C)[C@@H](O)[C@]1(C)O [Example 41]	39	30	27	95	70	99	79	52	80	84	100	100	25	59	36	92	79	100	29	10	inhibition at 10 µM (IL-8; zymosan-stimulated PBL): 19%; inhibition at 50 µM (IL-8; LPS-stimulated PBL): 87%; inhibition at 50 µM (IL-8; PMA-stimulated PBL): 42%; inhibition at 50 µM (IL-8; zymosan-stimulated PBL): 63%; Percentage of inhibition of cell growth (Hep G2; 12.5 μM): 7%; Percentage of inhibition of cell growth (Hep G2; 50 μM): 3%; Percentage of inhibition of cell growth (A549; 12.5 μM): 1%; Percentage of inhibition of cell growth (A549; 50 μM): 0%
